In ChEMBL document CHEMBL1201862, “PubChem BioAssay data set” (2004):
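Where inhibition never reached the appropriate level, the endpoint shown equals the highest concentration tested. Otherwise, values were interpolated linearly from a five-concentration, 48-hour dose response in 96-well plates. GI50 marks 50% less growth.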 Activity calls are given as the source filed them. Rule as the data show it: active = GI50 up to about 1.1 µM and inactive = higher.

Tests used:
Test in all cases: NCI-60 cell line screen, 48 h
MDA-MB-231 = test system: MDA-MB-231
BT-549 = test system: BT-549
SN12C = test system: SN12C
SF-295 = test system: SF-295
MDA-MB-435 = test system: MDA-MB-435
UO-31 = test system: UO-31
SR = test system: SR
NCI-H460 = test system: NCI-H460
SK-OV-3 = test system: SK-OV-3
T47D = test system: T47D
SF-539 = test system: SF-539
PC-3 = test system: PC-3
U-251 = test system: U-251
NCI-H226 = test system: NCI-H226
CAKI-1 = test system: CAKI-1
A549 = test system: A549
SW-620 = test system: SW-620
MCF7 = test system: MCF7
OVCAR-3 = test system: OVCAR-3
OVCAR-5 = test system: OVCAR-5
UACC-257 = test system: UACC-257
Hs-578T = test system: Hs-578T
A498 = test system: A498
K562 = test system: K562
TK-10 = test system: TK-10
RPMI-8226 = test system: RPMI-8226
Malme-3M = test system: Malme-3M
COLO 205 = test system: COLO 205
MDA-N = test system: MDA-N
SK-MEL-2 = test system: SK-MEL-2
OVCAR-4 = test system: OVCAR-4
CCRF-CEM = test system: CCRF-CEM
HCT-15 = test system: HCT-15
HOP-92 = test system: HOP-92
NCI/ADR-RES = test system: NCI/ADR-RES
HT-29 = test system: HT-29
SK-MEL-5 = test system: SK-MEL-5
OVCAR-8 = test system: OVCAR-8
ACHN = test system: ACHN
DU-145 = test system: DU-145
M14 = test system: M14
NCI-H23 = test system: NCI-H23
HL-60 = test system: HL-60
UACC-62 = test system: UACC-62
SF-268 = test system: SF-268
SK-MEL-28 = test system: SK-MEL-28
EKVX = test system: EKVX
HCT-116 = test system: HCT-116
SNB-19 = test system: SNB-19
786-0 = test system: 786-0
HCC 2998 = test system: HCC 2998
LOX IMVI = test system: LOX IMVI
KM12 = test system: KM12
IGROV-1 = test system: IGROV-1
NCI-H522 = test system: NCI-H522
SNB-75 = test system: SNB-75
RXF 393 = test system: RXF 393
HOP-62 = test system: HOP-62
MOLT-4 = test system: MOLT-4

For `O=c1cnn(C2OC(CO)C(O)C(F)C2O)c(=O)[nH]1` (stereo not drawn), the GI50 (MDA-MB-231) was > 100 µM (inactive), the GI50 (BT-549) was > 100 µM (inactive) and the GI50 (SN12C) was > 100 µM (inactive). For the same molecule, the GI50 (SF-295) was > 100 µM (inactive), the GI50 (MDA-MB-435) was > 100 µM (inactive) and the GI50 (UO-31) was > 100 µM (inactive). The GI50 (SR) was 8.55 µM (inactive), the GI50 (NCI-H460) was > 100 µM (inactive) and the GI50 (SK-OV-3) was > 100 µM (inactive). The GI50 (T47D) was > 100 µM (inactive), the GI50 (SF-539) was > 100 µM (inactive) and the GI50 (PC-3) was > 100 µM (inactive). For the same molecule, the GI50 (U-251) was > 100 µM (inactive), the GI50 (NCI-H226) was > 100 µM (inactive) and the GI50 (CAKI-1) was > 100 µM (inactive). For the same molecule, the GI50 (A549) was > 100 µM (inactive), the GI50 (SW-620) was > 100 µM (inactive) and the GI50 (MCF7) was > 100 µM (inactive). For the same molecule, the GI50 (OVCAR-3) was > 100 µM (inactive), the GI50 (OVCAR-5) was > 100 µM (inactive) and the GI50 (UACC-257) was > 100 µM (inactive). For the same molecule, the GI50 (Hs-578T) was > 100 µM (inactive), the GI50 (A498) was 40.8 µM (inactive) and the GI50 (K562) was > 100 µM (inactive). For the same molecule, the GI50 (TK-10) was > 100 µM (inactive), the GI50 (RPMI-8226) was > 100 µM (inactive) and the GI50 (Malme-3M) was > 100 µM (inactive). The GI50 (COLO 205) was > 100 µM (inactive), the GI50 (MDA-N) was > 100 µM (inactive) and the GI50 (SK-MEL-2) was > 100 µM (inactive). The GI50 (OVCAR-4) was > 100 µM (inactive), the GI50 (CCRF-CEM) was > 100 µM (inactive) and the GI50 (HCT-15) was over 100 µM. The GI50 (HOP-92) was > 100 µM (inactive), the GI50 (NCI/ADR-RES) was > 100 µM (inactive) and the GI50 (HT-29) was > 100 µM (inactive). For the same molecule, the GI50 (SK-MEL-5) was > 100 µM (inactive), the GI50 (OVCAR-8) was > 100 µM (inactive) and the GI50 (ACHN) was > 100 µM (inactive). For the same molecule, the GI50 (DU-145) was > 100 µM (inactive), the GI50 (M14) was > 100 µM (inactive) and the GI50 (NCI-H23) was > 100 µM (inactive). The GI50 (HL-60) was > 100 µM (inactive), the GI50 (UACC-62) was > 100 µM (inactive) and the GI50 (SF-268) was > 100 µM (inactive). For the same molecule, the GI50 (SK-MEL-28) was > 100 µM (inactive), the GI50 (EKVX) was > 100 µM (inactive) and the GI50 (HCT-116) was > 100 µM (inactive). For the same molecule, the GI50 (SNB-19) was > 100 µM (inactive), the GI50 (786-0) was > 100 µM (inactive) and the GI50 (HCC 2998) was > 100 µM (inactive). For the same molecule, the GI50 (LOX IMVI) was > 100 µM (inactive), the GI50 (KM12) was > 100 µM (inactive) and the GI50 (IGROV-1) was > 100 µM (inactive). For the same molecule, the GI50 (NCI-H522) was > 100 µM (inactive).
With `O=C(O)CCC(NC(=O)c1ccc(Nc2nc3ccc(C(F)(F)F)cc3nc2C(=O)O)cc1)C(=O)O` (stereo not drawn) the GI50 (MDA-MB-231) was > 100 µM (inactive), the GI50 (BT-549) was > 100 µM (inactive) and the GI50 (SN12C) was > 100 µM (inactive). The GI50 (SF-295) was > 100 µM (inactive), the GI50 (MDA-MB-435) was > 100 µM (inactive) and the GI50 (UO-31) was > 100 µM (inactive). For the same molecule, the GI50 (SR) was > 100 µM (inactive), the GI50 (T47D) was > 100 µM (inactive) and the GI50 (SF-539) was > 100 µM (inactive). The GI50 (SNB-75) was > 100 µM (inactive), the GI50 (PC-3) was > 100 µM (inactive) and the GI50 (U-251) was > 100 µM (inactive). For the same molecule, the GI50 (NCI-H226) was > 100 µM (inactive), the GI50 (RXF 393) was > 100 µM (inactive) and the GI50 (HOP-62) was > 100 µM (inactive). For the same molecule, the GI50 (A549) was > 100 µM (inactive), the GI50 (SW-620) was > 100 µM (inactive) and the GI50 (MCF7) was > 100 µM (inactive). The GI50 (MOLT-4) was > 100 µM (inactive), the GI50 (OVCAR-3) was 69.8 µM (inactive) and the GI50 (OVCAR-5) was > 100 µM (inactive). The GI50 (UACC-257) was > 100 µM (inactive), the GI50 (Hs-578T) was > 100 µM (inactive) and the GI50 (A498) was > 100 µM (inactive). The GI50 (K562) was > 100 µM (inactive), the GI50 (TK-10) was > 100 µM (inactive) and the GI50 (RPMI-8226) was > 100 µM (inactive). For the same molecule, the GI50 (COLO 205) was > 100 µM (inactive), the GI50 (MDA-N) was > 100 µM (inactive) and the GI50 (SK-MEL-2) was > 100 µM (inactive). For the same molecule, the GI50 (CCRF-CEM) was > 100 µM (inactive), the GI50 (HCT-15) was over 100 µM and the GI50 (HOP-92) was > 100 µM (inactive). The GI50 (NCI/ADR-RES) was > 100 µM (inactive), the GI50 (HT-29) was > 100 µM (inactive) and the GI50 (SK-MEL-5) was > 100 µM (inactive). For the same molecule, the GI50 (OVCAR-8) was > 100 µM (inactive), the GI50 (ACHN) was > 100 µM (inactive) and the GI50 (DU-145) was > 100 µM (inactive). The GI50 (M14) was > 100 µM (inactive), the GI50 (NCI-H23) was > 100 µM (inactive) and the GI50 (HL-60) was > 100 µM (inactive). The GI50 (UACC-62) was > 100 µM (inactive), the GI50 (SF-268) was > 100 µM (inactive) and the GI50 (EKVX) was > 100 µM (inactive). The GI50 (HCT-116) was > 100 µM (inactive), the GI50 (SNB-19) was > 100 µM (inactive) and the GI50 (786-0) was > 100 µM (inactive). The GI50 (HCC 2998) was > 100 µM (inactive), the GI50 (LOX IMVI) was > 100 µM (inactive) and the GI50 (KM12) was > 100 µM (inactive). For the same molecule, the GI50 (IGROV-1) was > 100 µM (inactive) and the GI50 (NCI-H522) was > 100 µM (inactive).
For `Cc1cc2nc3ccccc3n2c2nc(N)ccc12`, the GI50 (MDA-MB-231) was 58.2 µM (inactive), the GI50 (BT-549) was 68.9 µM (inactive) and the GI50 (SN12C) was 51.2 µM (inactive). The GI50 (SF-295) was 23.3 µM (inactive), the GI50 (MDA-MB-435) was 49.5 µM (inactive) and the GI50 (UO-31) was 16.3 µM (inactive). For the same molecule, the GI50 (SR) was 13.5 µM (inactive), the GI50 (NCI-H460) was 4.02 µM (inactive) and the GI50 (T47D) was 38.2 µM (inactive). The GI50 (SF-539) was 26.5 µM (inactive), the GI50 (SNB-75) was > 100 µM (inactive) and the GI50 (PC-3) was 40.4 µM (inactive). The GI50 (NCI-H226) was 27.2 µM (inactive), the GI50 (RXF 393) was 41.2 µM (inactive) and the GI50 (HOP-62) was 26.3 µM (inactive). For the same molecule, the GI50 (CAKI-1) was 20.9 µM (inactive), the GI50 (A549) was 30.9 µM (inactive) and the GI50 (SW-620) was 25.4 µM (inactive). The GI50 (MCF7) was 44 µM (inactive), the GI50 (MOLT-4) was 17.7 µM (inactive) and the GI50 (OVCAR-3) was 63.7 µM (inactive). For the same molecule, the GI50 (OVCAR-5) was 61.2 µM (inactive), the GI50 (UACC-257) was > 100 µM (inactive) and the GI50 (Hs-578T) was 35.3 µM (inactive). The GI50 (A498) was 46.1 µM (inactive), the GI50 (K562) was 54.1 µM (inactive) and the GI50 (TK-10) was 55.8 µM (inactive). The GI50 (RPMI-8226) was 14.8 µM (inactive), the GI50 (COLO 205) was 32.9 µM (inactive) and the GI50 (MDA-N) was 49.4 µM (inactive). The GI50 (SK-MEL-2) was 65.6 µM (inactive), the GI50 (OVCAR-4) was 44.9 µM (inactive) and the GI50 (CCRF-CEM) was 38.5 µM (inactive). The GI50 (HCT-15) was 12 µM, the GI50 (HOP-92) was 16.6 µM (inactive) and the GI50 (NCI/ADR-RES) was 23.2 µM (inactive). The GI50 (HT-29) was 34.3 µM (inactive), the GI50 (SK-MEL-5) was 13.6 µM (inactive) and the GI50 (OVCAR-8) was 15.8 µM (inactive). The GI50 (ACHN) was 15.4 µM (inactive), the GI50 (DU-145) was 52.6 µM (inactive) and the GI50 (M14) was 48 µM (inactive). The GI50 (NCI-H23) was 43 µM (inactive), the GI50 (HL-60) was 17.6 µM (inactive) and the GI50 (UACC-62) was 39.3 µM (inactive). The GI50 (SF-268) was 37.1 µM (inactive), the GI50 (EKVX) was 53 µM (inactive) and the GI50 (HCT-116) was 14.8 µM (inactive). For the same molecule, the GI50 (SNB-19) was 20.6 µM (inactive), the GI50 (786-0) was 16.7 µM (inactive) and the GI50 (HCC 2998) was 39.6 µM (inactive). For the same molecule, the GI50 (LOX IMVI) was 22.1 µM (inactive), the GI50 (KM12) was 33 µM (inactive) and the GI50 (IGROV-1) was 28.1 µM (inactive). For the same molecule, the GI50 (NCI-H522) was 31.6 µM (inactive).
